Test results taken from patent US6737383B1, “Herbicidal oxadiazolidines” (priority 1999, dated 2004).

Assays:
Details in all cases: 0 to 10 scale where 0 is no effect and 10 is complete control
[1] = test system: morningglory; assay: Test A morningglory; type: in vivo, Ipomoea spp.
Procedure: Seeds of barnyardgrass (Echinochloa crus-galli), crabgrass (Digitaria spp.), morningglory (Ipomoea spp.), and velvetleaf (Abutilon theophrasti) were planted into a sandy loam soil and treated preemergence by soil drench with test chemicals formulated in a non-phytotoxic solvent mixture which includes a surfactant At the same time, these crop and weed species were also treated postemergence sprayed to runoff, with test chemicals formulated in the same manner.
Plants ranged in height from two to eighteen cm and were in the one to two leaf stage for the postemergence treatment. Treated plants and untreated controls were maintained in a greenhouse for approximately eleven days, after which all treated plants were compared to untreated controls and visually evaluated for injury. Plant response ratings, summarized in Table A, are based on a 0 to 10 scale where 0 is no effect and 10 is complete control.

[2] = test system: velvetleaf; assay: Test A velvetleaf; type: in vivo, Abutilon theophrasti
Method in brief: (§1)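 Ratings came from visual comparison with untreated plants about eleven days after treatment, scored 0 for no effect through 10 for complete control. Both soil-drench preemergence and runoff-spray postemergence applications were made at the same time.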

[3] = test system: barnyardgrass; assay: Test A barnyardgrass; type: in vivo, Echinochloa crus-galli
Method in brief: as §1

[4] = test system: crabgrass; assay: Test A crabgrass; type: in vivo, Digitaria spp.
Method in brief: as §1

CC(C)N(C(=O)n1oc(=O)[nH]c1=O)c1ccc(Cl)cc1 [Compound 377]
0: Plant response rating, Morningglory ([1]; Postemergence, Rate 1000 g/ha) | Plant response rating, Morningglory ([1]; Pre-emergence, Rate 2000 g/ha) | Plant response rating, Velvetleaf ([2]; Postemergence, Rate 1000 g/ha) | Plant response rating, Velvetleaf ([2]; Pre-emergence, Rate 2000 g/ha) | Plant response rating, Barnyardgrass ([3]; Postemergence, Rate 1000 g/ha) | Plant response rating, Barnyardgrass ([3]; Pre-emergence, Rate 2000 g/ha) | Plant response rating, Crabgrass ([4]; Postemergence, Rate 1000 g/ha) | Plant response rating, Crabgrass ([4]; Pre-emergence, Rate 2000 g/ha)
